In patent publication US12286439B2, “Inhibitors of ERK nuclear translocation” (Yeda Research and Development Co. Ltd., priority 2018, dated 2025):

Legend:
Assay type in all cases: cell-based
A2185 and A2352 cells = test: Viability assay (methylene blue), two BRAF melanoma cells; conditions: for viability at 10 µM / cell viability (percentage of DMSO control): active below 40%, moderate below 80%, not active above 80%; for viability at 10 µM: read-out: cell viability (percentage of DMSO control); for activity in SAR summary of FIGS. 10A-10C (cell viability): comparison with Compound Z2 or named analog; for cell viability at lower concentration: 3 μM; for cell viability, dose response: 0.1-10 μM
Description: FIGS. 10A, 10B and 10C present data from screening the 20 analogs of Compound Z2 (“C-compounds”) showing three particularly active anti-proliferative compounds. […] A2185 and A2352 cells were grown in 1% FCS containing DMSO (0.1%), EPE peptide, Compound Z56, Compound Z2 or C-compounds (10 μM), for 72 hours. Compounds were categorized according to activity: (1) active, below 40%; (2) moderate activity, below 80%; (3) not active, above 80%. […] A2185 and A2352 cells were grown in 1% FCS containing DMSO (0.1%), EPE peptide (10 μM), compounds Z56, Z2 or selected C-compounds (3 μM), for 72 hours. Empty squares/circles represent individual data points of proliferation. Full squares/circles indicate average proliferation of 2 independent experiments in triplicate±SE. Bold horizontal line defines arbitrary activity threshold of activity below 40%. FIG. 10C presents dose response curves of active C-compounds compounds. A2185 and A2352 were grown in 1% FCS media containing DMSO (0.1%), EPE peptide, Z56, Z2 (10 μM) or compounds C17, C22 and C23 (0.1-10 μM), for 72 hours. […] Cell viability was measured by staining with methylene blue. Data presented as percentage of DMSO control. Bar graphs represent average of 2 independent experiments done in triplicates ±SE.
FIG. 13 presents a graph showing the effect of analogs of Compound C17 (“D-compounds”) on cell viability at a concentration of 10 μM. A2185 and A2352 cells were grown in 1% FCS media containing DMSO (0.1%) EPE peptide (10 μM), Compounds Z56, Z2, C17 (10 μM) as controls, and D-Compounds (10 μM), for 72 hours. Viable cells were measured by staining with methylene blue. Bar graphs represent average of 2 independent experiments done in triplicates. Data presented as percentage of DMSO proliferation ±standard error.
FIG. 14 presents a graph showing the effect of analogs of Compound C17 (“D-compounds”) on cell viability at a concentration of 1 μM. A2185 and A2352 cells were grown in 1% FCS media containing DMSO (0.1%), EPE peptide (10 μM), Compounds Z56, Z2 and C17 (1 and 10 μM) as controls, and D-compounds (1 μM), for 72 hours. Viable cells were measured by staining with methylene blue. Bar graphs represent average of 2 independent experiments done in triplicates. Data presented as percentage of DMSO proliferation ±standard error.
(§1) Cells were seeded at low confluence into 24, 48 or 96-well plates in complete medium. After 24 hours, medium was replaced by 1% FCS (fetal calf serum) containing appropriate treatments. Fresh medium containing the same agents was replaced every day. After 72 or 96 hours of treatment, cells were fixed with 4% formaldehyde overnight at 23° C., washed once with 0.1 M borate buffer (pH 8.5) for 10 minutes, and stained with of 1% methylene blue in 0.1 M borate buffer (pH 8.5) for 30 minutes. Excess stain was washed out with distilled water. Color was extracted by adding 0.1 M HCl (3 hours, 23° C.), and absorbance measured at 595 nm in an ELISA reader. For time course experiments, attached cells were fixed and measured at 0, 24, 48, 72 and 96 hours. For dose-response experiments, cells were treated with indicated concentrations of reagent, fixed and stained after 72 hours as above.
The ability of the selected compounds to reduce cell viability of two BRAF melanoma cells (A2185 and A2352) was evaluated. Initially, all compounds were assayed at a relatively high concentration of 10 μM.

[1] = system: ERK1/2 nuclear translocation; test: Determination of ERK1/2 localization by fluorescence microscopy after TPA stimulation; conditions: 10 μM, 2 hours; TPA 100 nM, 15 minutes; A2185 and A2352 cells
Description: Determination of Protein Localization by Fluorescence Microscopy:
Indicated cells were seeded on coverslips (coated with 0.001% w/v poly-L-lysine or not, depending on the cell line) at 50% confluency. After the indicated treatment, cells were fixed in 4% paraformaldehyde/PBS for 20 minutes on an ice surface, permeabilized with 0.1% Triton X-100/PBS for 5 minutes at 23° C., then blocked in 2% BSA/PBS for 30 minutes at 23° C. The fixed cells were sequentially incubated with appropriate antibodies (in 2% BSA/PBS, 1.5 hour), washed 3 times with PBS^−/−, and followed by incubation with either Cy-2-conjugated or rhodamine-conjugated secondary antibodies (1:200) and with DAPI ([…]; 1:100) in 2% BSA/PBS for 45 minutes. Slides were analyzed and photographed by a fluorescence microscope (Olympus BX51, ×40). Background correction, and contrast adjustment of raw data images were performed using Photoshop (Adobe, CA, USA).
The effect of Z56 was compared with that of the inhibitory effect of EPE peptide on nuclear translocation of ERK1/2.
The effects of the compounds on ERK1/2 nuclear translocation were evaluated in three cell lines (HeLa cells and two melanoma cell lines, A2185 and A2352), by treating the cells with each compound for two hours, and determining nuclear translocation using fluorescent anti-ERK antibodies, according to procedures described hereinabove.

[2] = system: Panc-1, AsPC-1, CFPAC-1, MIA PaCa-2, Capan-1, Capan-2 and BxPC-3 pancreatic cancer cells; test: Viability assay (methylene blue), pancreatic cancer cell lines
Description: FIGS. 6A and 6B present data showing that Compound Z56 prevents proliferation of pancreatic cancer cells. […] Panc-1, AsPC-1, CFPAC-1, Mia PaCa-2, Capan-1, Capan-2 (Ras-transformed) and BxPC-3 (Ras-wild type) pancreatic cancer cells were treated with either EPE peptide (10 μM; middle bars) or Z56 (3 μM; right bars) or DMSO control (0.1%; left bars) in 1% FCS for 72 hours. […] Panc-1, AsPC-1, BxPC-3 and Mia PaCa-2 cells grown in 1% FCS medium containing either EPE peptide (10 μM), 56 (3 μM), PLX4032 (1 μM), PD184352 (5 μM) or DMSO control (0.1%). The graphs present the kinetics of cell proliferation at the indicated times after the treatment started. Quantification of all viable cells was done by methylene blue and repeated 3 times in triplicates. All results presented as a fold change of the initial cell number and represent averages ±SE.
as §1
Activating mutations in Ras are found in more than 95% of pancreatic cancers where signaling through both Raf and Akt pathway drives cancer progression [Campbell et al., Cancer Res 2007, 67:2098-2106]. However, no effective treatments that target this mutant protein have reached the clinic to date, and pancreatic ductal adenocarcinoma remains an almost universally fatal disease [Bryant et al., Trends Biochem Sci 2014, 39:91-100]. Therefore, treating these pancreatic cancer cells downstream of Ras, without overactivating the Akt pathway, should be at least partially beneficial. The effect of Compound Z56 (and EPE peptide) on cell viability of Ras-transformed (and Ras-wild type) pancreatic cancer cells was determined, using a variety of cell lines.
The effects of Compound Z56 on the viability of pancreatic cancer cell lines at various times after treatment was compared with those of PLX4032 (a B-Raf inhibitor) and PD184352 (a MEK1/2 inhibitor).

## CCOC(=O)c1ccc(NC2C=CS(=O)(=O)C2)cc1 (stereo not drawn) [Compound C1]
A2185 and A2352 cells; 10 μM, 72 hours, 1% FCS
  viability at 10 µM: < 40%
A2185 and A2352 cells
  activity in SAR summary of FIGS. 10A-10C (cell viability): lower activity (relative to Compound Z2)

## O=C(NC1C=CS(=O)(=O)C1)c1ccccc1 (stereo not drawn) [Compound C2]
A2185 and A2352 cells; 10 μM, 72 hours, 1% FCS
  viability at 10 µM: < 80%
A2185 and A2352 cells
  activity in SAR summary of FIGS. 10A-10C (cell viability): less active

## O=C(CCc1ccccc1)OC1C=CS(=O)(=O)C1 (stereo not drawn) [Compound C3]
A2185 and A2352 cells; 10 μM, 72 hours, 1% FCS
  viability at 10 µM: < 80%

## O=S1(=O)C=CC(O)C1 (stereo not drawn) [Compound C4]
A2185 and A2352 cells; 10 μM, 72 hours, 1% FCS
  cell viability (percentage of DMSO control): did not exhibit significant activity

## O=S1(=O)CCC(Oc2ccccc2)C1 (stereo not drawn) [Compound C5]
A2185 and A2352 cells; 10 μM, 72 hours, 1% FCS
  viability at 10 µM: < 80%

## O=S1(=O)C=CC2ON=C(c3cc(Cl)cc(Cl)c3)C21 (stereo not drawn) [Compound C6]
A2185 and A2352 cells; 10 μM, 72 hours, 1% FCS
  cell viability (percentage of DMSO control): did not exhibit significant activity
A2185 and A2352 cells
  activity in SAR summary of FIGS. 10A-10C (cell viability): inactive

## O=S1(=O)CCC(OCc2ccccc2)C1 (stereo not drawn) [Compound C8]
A2185 and A2352 cells; 10 μM, 72 hours, 1% FCS
  cell viability (percentage of DMSO control): did not exhibit significant activity
A2185 and A2352 cells
  activity in SAR summary of FIGS. 10A-10C (cell viability): less active

## Cc1ccc(C(=O)OC2CCS(=O)(=O)C2)cc1 (stereo not drawn) [Compound C11]
A2185 and A2352 cells; 10 μM, 72 hours, 1% FCS
  cell viability (percentage of DMSO control): did not exhibit significant activity
A2185 and A2352 cells
  activity in SAR summary of FIGS. 10A-10C (cell viability): inactive

## O=C(Nc1ccccc1)OC1C=CS(=O)(=O)C1 (stereo not drawn) [Compound C12]
A2185 and A2352 cells; 10 μM, 72 hours, 1% FCS
  cell viability (percentage of DMSO control): did not exhibit significant activity
A2185 and A2352 cells
  activity in SAR summary of FIGS. 10A-10C (cell viability): less active

## CC(C)OC(=O)c1ccc(NC(=O)CC2C=CS(=O)(=O)C2)cc1 (stereo not drawn) [Compound C14]
A2185 and A2352 cells; 10 μM, 72 hours, 1% FCS
  cell viability (percentage of DMSO control): did not exhibit significant activity
A2185 and A2352 cells
  activity in SAR summary of FIGS. 10A-10C (cell viability): lower activity (relative to Compound Z2)

## O=C(OC1CCCS(=O)(=O)C1)c1ccc(F)cc1 (stereo not drawn) [Compound C15]
A2185 and A2352 cells; 10 μM, 72 hours, 1% FCS
  cell viability (percentage of DMSO control): did not exhibit significant activity
A2185 and A2352 cells
  activity in SAR summary of FIGS. 10A-10C (cell viability): inactive

## O=C(OC1CCS(=O)(=O)C1)c1ccnc(OCc2ccccc2)c1 (stereo not drawn) [Compound C16]
A2185 and A2352 cells; 10 μM, 72 hours, 1% FCS
  cell viability (percentage of DMSO control): did not exhibit significant activity

## CS(=O)(=O)CCOC(=O)c1cccc(Br)c1 [Compound C19]
A2185 and A2352 cells; 10 μM, 72 hours, 1% FCS
  cell viability (percentage of DMSO control): did not exhibit significant activity
A2185 and A2352 cells
  activity in SAR summary of FIGS. 10A-10C (cell viability): inactive

## Cc1ccccc1OC1CCS(=O)(=O)C1 (stereo not drawn) [Compound C20]
A2185 and A2352 cells; 10 μM, 72 hours, 1% FCS
  cell viability (percentage of DMSO control): did not exhibit significant activity
A2185 and A2352 cells
  activity in SAR summary of FIGS. 10A-10C (cell viability): lower activity (relative to Compound Z2)

## Cc1ccc(OC2CCS(=O)(=O)C2)cc1 (stereo not drawn) [Compound C21]
A2185 and A2352 cells; 10 μM, 72 hours, 1% FCS
  cell viability (percentage of DMSO control): did not exhibit significant activity
A2185 and A2352 cells
  activity in SAR summary of FIGS. 10A-10C (cell viability): lower activity (relative to Compound Z2)

## O=C(OC1CS(=O)(=O)CC1Br)c1ccccc1 (stereo not drawn) [Compound C22]
A2185 and A2352 cells; 72 hours, 1% FCS
  cell viability at lower concentration: at least as potent as Compound Z2
  cell viability, dose response: dose dependent manner
A2185 and A2352 cells; 10 μM, 72 hours, 1% FCS
  viability at 10 µM: < 40%
A2185 and A2352 cells
  activity in SAR summary of FIGS. 10A-10C (cell viability): far more active than Compound C6
[1]
  nuclear accumulation of ERK1/2 upon TPA stimulation: inhibited

## O=S1(=O)C=CC2ON=C(c3c(Cl)cccc3Cl)C21 (stereo not drawn) [Compound C23]
A2185 and A2352 cells; 72 hours, 1% FCS
  cell viability at lower concentration: at least as potent as Compound Z2
  cell viability, dose response: dose dependent manner
A2185 and A2352 cells; 10 μM, 72 hours, 1% FCS
  viability at 10 µM: < 40%
[1]
  nuclear accumulation of ERK1/2 upon TPA stimulation: inhibited

## O=C(OC1CCCS(=O)(=O)C1)c1ccccc1F (stereo not drawn) [Compound C31]
A2185 and A2352 cells; 10 μM, 72 hours, 1% FCS
  cell viability (percentage of DMSO control): did not exhibit significant activity
A2185 and A2352 cells
  activity in SAR summary of FIGS. 10A-10C (cell viability): inactive

## Cn1ccc2c(C(=O)OC3CCS(=O)(=O)C3)cccc21 (stereo not drawn) [Compound C32]
A2185 and A2352 cells; 10 μM, 72 hours, 1% FCS
  cell viability (percentage of DMSO control): did not exhibit significant activity

## O=S1(=O)C=CC2ON=C(c3cccnc3)C21 (stereo not drawn) [Compound D13]
A2185 and A2352 cells; 10 μM, 72 hours, 1% FCS
  anti-viability activity: higher activity than did Compound D7

## O=C(NOCC1CC1)c1ccc(F)c(F)c1Nc1ccc(I)cc1Cl [PD184352]
[2]; 5 μM, all tested cell lines (Panc-1, AsPC-1, BxPC-3, Mia PaCa-2)
  viability, time course: reduced the viability

## CCCS(=O)(=O)Nc1ccc(F)c(C(=O)c2c[nH]c3ncc(-c4ccc(Cl)cc4)cc23)c1F [PLX4032]
[2]; 1 μM, Ras-mutated AsPC-1 cells
  proliferation, time course: to some extent
[2]; 1 μM, other Ras-transformed pancreatic cancer cells (Panc-1, Mia PaCa-2)
  viability, time course: not affecting the viability
